Measured values reported in US12178981B2, “Drug administration method” (Takeda Pharmaceutical Company Limited, priority 2017, dated 2024).
Each block holds one molecule with its values, some of them ahead of it.

Tests used:
brain tissue = details: ddY mice; nano-bubbles (about 400 nm) and 5-FU in combination; brain tissue exposed to ultrasound; cited from earlier work
BBB Kit™ (RBT-24H) [1] = experiment: BBB permeation experiment of fluorescein using BBB Kit, two nano-bubble waters (Example 4); format: in vitro ADME; details: culture medium A (Reference Example 1) and culture medium B (Reference Example 2); ultrasound exposure at not less than 100 mW/cm^2
Experimental: (§1) In addition, the fluorescein stock solution and the nano-bubble water prepared in Reference Example 2 were diluted with D-PBS such that the fluorescein concentration was 1 μM and nano-bubble density was 2×10^8 bubbles to prepare a culture solution B (volume: 500 μL) (n=2).
(§2) The permeability coefficient (Papp) was calculated from the measured fluorescein concentration, and the intracerebral transferability of fluorescein (BBB permeability) was calculated.

[2] = as above; format: in vitro ADME; details: rat, 2 hr, read-out: permeability coefficient (Papp)
Experimental: as §1, §2

BBB Kit™ (RBT-24H) [3] = experiment: BBB permeation experiment of fluorescein using BBB Kit (Example 1); format: in vitro ADME; details: nano-bubble water (PS80); ultrasound exposure at not less than 100 mW/cm^2
Experimental: (§3) Using this D-PBS, fluorescein (fluorescein sodium manufactured by Wako Pure Chemical Industries, Code No. 213-00092) was dissolved to prepare a fluorescein stock solution.
as §2
(§4) • fluorescence wavelength: 520 nm • excitation wavelength: 480 nm • flash number: 6 times

[4] = as above; format: in vitro ADME; details: rat, 2 hr, read-out: permeability coefficient (Papp)
Experimental: as §3, §2, §4

BBB = BBB permeation experiment of FITC dextran using rat (Example 6); details: ultrasound exposure using nano-bubble water of Reference Example 1
Experimental: The administration solution (0.4 mL) was injected into the rat tail vein at 1 mL/min using an injection tube and a needle of appropriate sizes (both sterilized disposable products). Using an ultrasound gene transfer apparatus (Sonitron GTS) manufactured by Nepa Gene Co., Ltd., exposure was performed for 60 sec at frequency 1 MHz and ultrasound intensity 2 W/cm^2 (n=3).
• fluorescence wavelength: 520 nm • excitation wavelength: 494 nm • flash number: 6 times

[5] = control: fluorescein 1 μM in D-PBS without nano-bubble water

Molecule: O=c1[nH]cc(F)c(=O)[nH]1 [5-FU, fluorouracil]
duration for which transfer into the brain was observed (brain tissue): at least 24 hr

BBB permeability compared with the control (BBB Kit™ (RBT-24H) [1]): clear promotion of BBB permeability
Papp at 2 h, 1 μM [2, 5]: 1.79 ×10⁻⁶ cm/s
Papp at 2 h, 1 μM ([2]; culture medium A (Reference Example 1 nano-bubble water, 2×10^8 bubbles), fluorescein 1 μM, ultrasound 100 mW/cm^2, 1 MHz, 10 sec): 11.1 ×10⁻⁶ cm/s
BBB permeability compared with the control (BBB Kit™ (RBT-24H) [3]): clear promotion of BBB permeability
Papp at 2 h, 1 μM [4, 5]: 0.574 ×10⁻⁶ cm/s
Papp at 2 h, 1 μM ([4]; fluorescein 1 μM + nano-bubble water (PS80) 2×10^8 bubbles, ultrasound 100 mW/cm^2, 1 MHz, 10 sec): 11.2 ×10⁻⁶ cm/s
Papp at 2 h, 1 μM ([4]; fluorescein 1 μM + nano-bubble water (PS80) 2×10^8 bubbles, ultrasound 250 mW/cm^2, 1 MHz, 10 sec): 10.6 ×10⁻⁶ cm/s
Papp at 2 h, 1 μM ([4]; fluorescein 1 μM + nano-bubble water (PS80) 2×10^8 bubbles, ultrasound 500 mW/cm^2, 1 MHz, 10 sec): 12.7 ×10⁻⁶ cm/s
Molecule: O=C1OC2(c3ccc(O)cc3Oc3cc(O)ccc32)c2ccccc21 [fluorescein, fluorescein sodium]

Molecule: fluorescein isothiocyanate dextran [FITC dextran]
brain transferability compared with the control (BBB): promotion of brain transferability
